# Source: patent publication US7476662B2, “Substituted tetracyclic imidazole derivatives, processes for their preparation, pharmaceutical compositions comprising them and their use as a medicine” (Janssen Pharmaceutica N.V., priority 2001, dated 2009)
# Key:
# [1] = system: Sprague-Dawley rats; assay: Closed Head Injury (CHI) model, screening procedure (severe head injury); type: in vivo, rat
# Source text: (§1) A clinically relevant rat model for traumatic brain injury was used to test the compounds according to the invention. This model mimics several clinical features of traumatic brain injury, such as increased ICP, decreased cerebral perfusion pressure, morphologic alterations including diffuse axonal injury, neuronal necrosis and contusion, impairment of autoregulation of cerebral blood flow and reduction of brain oxygenation and was applied for screening drugs with ICP-lowering effects. Trauma was induced in intubated, isoflurane anesthetized (1.5% isoflurane in a mixture of 30% O2 and 70% N2O) Sprague-Dawley rats (380-400 g) stereotaxically positioned on a table mounted on 4 springs. A 400 g steel cylinder, protected with a 9 mm diameter silicon disc, was dropped on the unprotected skull from a height of either 70 cm or 50 cm (respectively ‘severe’ and ‘moderate’ head injury). The impact area was centered between bregma and lamda. ICP was recorded using a Codman microsensor probe inserted in the parietal cortex. In both severe and moderate head injuries the ICP increased immediately after trauma and remained elevated for several days. The severe head injury mode was used for the evaluation of pharmacological effects immediately after trauma (screening procedure). When survival and recovery from anesthesia was envisaged, the moderate head injury mode was applied. In pharmacological studies, animals with a pathological ICP between 12.5 and 35 mm Hg were included. The changes in ICP, mean arterial blood pressure (MABP) and cerebral perfusion pressure CPP (=[…]) were expressed as percentage of the initial value at onset of the treatment. Screening procedure: On a weekly base, 4 treated groups of 3 rats were compared with 3 saline treated animals. Since conventional statistical methods require a larger amount of animals, a sequential procedure was used. Sequential methods operate in different stages. At each stage, a group of animals was selected as homogeneous as possible. Animals were randomly allocated to either drugs or saline. The procedure allowed to make the decision of rejecting the drug, accepting the drug as active or to continue with a new group of animals in a next stage. Given the biological relevant level of activity that must be detected, the expected fraction of false positive and negative results was known and fixed. A sequential two-sample grouped rank test was used. […] Despite the variability in the individual data, the procedure consistently accepted reference treatments such as mannitol as active, while controls were rejected.
# [2] = system: traumatized rats; assay: Repeated application on elevated ICP in traumatized rats; type: in vivo, rat; conditions: mannitol i.v. 0.125 g/kg/min, same time windows; FIG. 3
# Procedure: Compound 1 was given 2 times with intermittent periods of 20 min at a i.v. dose of 1 mg/kg/min during 10 min, starting a first time 20 min after induction of severe head injury.
# Mannitol was given i.v. in the same time windows as Compound 1 at a dose of 0.125 g/kg/min. The control animals received the solvent (containing 10% HP-β-CD, pH 4) only.
# This effect is amplified after termination of each, infusion period.
# [3] = system: Sprague-Dawley rats; assay: Changes in relevant physiological variables during treatment after severe CHI in rats; type: in vivo, rat; conditions: median average change over entire treatment period, % change of initial value; 0.5 mg/kg/min 10 min then 0.1 mg/kg/min 50 min, started 20 min after severe CHI; n = 10
# Source text: as §1
# Treatment was started at 20 min after severe head injury and involved administering a dose of 0.5 mg/kg/min during 10 minutes, followed by 0.1 mg/kg/min during 50 min.
# [4] = system: rat brain; assay: Near-infrared spectroscopy (NIRS) of the rat brain: brain hemoglobin concentration and oxygenation after moderate head injury; type: in vivo; conditions: 24 h after moderate head injury; i.v. 0.5 mg/kg.min 10 min then 0.1 mg/kg.min 45 min
# Source text: Near-infrared spectroscopy (NIRS) of the rat brain ‘in vivo’ allows to quantify non-invasively saturation of brain haemoglobin with oxygen (HbSat) and total brain haemoglobin concentration ([HbTot]). The latter is a measure for cerebral blood volume (CBV). Changes in the redox state of the mitochondrial enzyme cytochrome oxidase (CytOx), an indicator for tissue oxygenation, can also be monitored.
# HbSat is not affected by compound 1 and the racemate (Comp. 1 and Comp. 2).
# [5] = system: non-traumatised rats; assay: ICP, MABP and CPP in anaesthetised non-traumatised rats; type: in vivo, rat; conditions: i.v. 0.5 mg/kg/min during 10 minutes, followed by 0.1 mg/kg/min during 50 min
# Procedure: The effect of Compound 2, Compound 1 and Racemate (comp. 1 and comp. 2) on ICP, MABP and CPP was tested in anaesthetised non-traumatised rats. The compounds were administered i.v. and the same dose was given as in traumatized rats (0.5 mg/kg/min during 10 minutes, followed by 0.1 mg/kg/min during 50 min).
smiles,measurement,setting,value
Cc1nc2ccccn2c(=O)c1CCN1CCC(C2(C)c3ccccc3CCn3c2nc2ccccc23)CC1 (stereo not shown) (hydrate or solvate) [Compound 6],melting point,,133.9 °C
"Cc1nc2sccn2c(=O)c1CCN1CCC(=C2c3ccccc3C=Cn3c2nc2ccccc23)CC1 [Compound 8, 6-[2-[4-(6H-benzimidazo[2,1-b][3]benzazepin-6-ylidene)-1-piperidinyl]ethyl]-7-methyl-5H-thiazolo[3,2-a]pyrimidin-5-one]",melting point,,178.8 °C
"Cc1nc2sccn2c(=O)c1CCN1CCC(=C2c3ccccc3CCn3c2nc2ccccc23)CC1 [Compound 5, 6-[2-[4-(11,12-dihydro-6H-benzimidazo [2,1-b][3]benzazepin-6-ylidene)-1-piperidinyl]ethyl]-7-methyl-5H-thiazolo [3,2-a]pyrimidin-5-one]",melting point,,224.9 °C
OC[C@@H](O)[C@@H](O)[C@H](O)[C@H](O)CO [Mannitol],mean reduction of ICP,[1]; i.v. mannitol 3 g over 45 min,about 20%
same,Decision (based upon sequential statistical evaluation),"[1]; severe CHI rats, mannitol infusion of 67 mg/kg/min for 45 min, 5 separate tests",active
same,Delta %: average change of the relative ICP from baseline over the treatment period,"[1]; severe CHI rats, mannitol infusion of 67 mg/kg/min for 45 min, 5 separate tests, listed as Mannitol^1, 67 mg/kg",−21.7%
same,Delta %: average change of the relative ICP from baseline over the treatment period,"[1]; severe CHI rats, mannitol infusion of 67 mg/kg/min for 45 min, 5 separate tests, listed as Mannitol^2, 67 mg/kg",−22.1%
same,Delta %: average change of the relative ICP from baseline over the treatment period,"[1]; severe CHI rats, mannitol infusion of 67 mg/kg/min for 45 min, 5 separate tests, listed as Mannitol^3, 67 mg/kg",−13.0%
same,Delta %: average change of the relative ICP from baseline over the treatment period,"[1]; severe CHI rats, mannitol infusion of 67 mg/kg/min for 45 min, 5 separate tests, listed as Mannitol^4, 67 mg/kg",−19.3%
same,Delta %: average change of the relative ICP from baseline over the treatment period,"[1]; severe CHI rats, mannitol infusion of 67 mg/kg/min for 45 min, 5 separate tests, listed as Mannitol^5, 67 mg/kg",−19.9%
same,effect on ICP during infusion,[2],lowering of ICP
same,effect on blood pressure,[2],increase in blood pressure during each infusion followed by a decrease in blood pressure after termination of each treatment
"Cc1nc2n(C)c3ccccc3n2c(=O)c1CCN1CCC(C2c3ccccc3CCn3c2nc2ccccc23)CC1Cc1ccccc1 (racemic) [Racemate (comp. 1 and comp. 2), pyrimido[1,2-α]benzimidazol-4(10H)-one, 3-[2-[4-(11,12-dihydro-6H-benzimidazo[2,1-b][3]benzazepin-6-yl)-2-(phenylmethyl)-1-piperidinyl]ethyl]-2,10-dimethyl (E)-2-butenedioate (2:3) hydrate (1:1)]",CPP (%),[3],7.5%
same,ETCO2 (%),[3],2.4%
same,Heart rate(%),[3],5.6%
same,ICP (%),[3],−19.1%
same,MABP (%),[3],0.6%
same,Resp. rate(%),[3],9.6%
same,effect on saturation of brain haemoglobin with oxygen (HbSat),[4],not affected
same,effect on total brain haemoglobin concentration [HbTot],[4],do not have a significant effect
same,"effect on ICP, MABP and CPP",[5],comparable with those obtained in the traumatized animals
Cc1nc2sccn2c(=O)c1CCN1CCC(C2c3ccccc3C(c3ccccc3)Cn3c2nc2ccccc23)CC1Cc1ccccc1 (stereo not shown) [Compound 7],melting point,,213.2 °C
